Laboratory results: paper PMC8145110, “Design, Synthesis, and Antibacterial Screening of Some Novel Heteroaryl-Based Ciprofloxacin Derivatives as DNA Gyrase and Topoisomerase IV Inhibitors” (Pharmaceuticals, 2021)
≈ marks a conversion by molar mass, not a printed value.

Tests used:
E. coli topoisomerase IV = target: T1, E. coli topoisomerase IV (Escherichia coli, UniProt P0AFI2+P20083); experiment: E. coli topoisomerase IV assay; format: biochemical
T1 construct: purchased Inspiralis
Description: (§1) IC50 assay determination was carried out in accordance with the procedures previously stated (see Appendix A).
(§2) Inhibitory activities were determined in an assay from Inspiralis on streptavidin-coated 96-well microtiter plates from Thermo scientific Pierce. […] After washing off the unbound oligonucleotide, the enzyme test was performed. […] After that, the TF buffer (50 mM NaOAc with pH 5.0, 50 mM NaCl and 50 mM MgCl2) was added to terminate the enzymatic reaction. After additional incubation for 30 min at rt, during which biotin-oligonucleotide-plasmid triplex was 19 formed, the unbound plasmid was washed off using TF buffer and SybrGOLD in T10 buffer (10 mM Tris HCl with pH 8.0 and 1 mM EDTA) was added. […] Initial screening was done at 100 or 10 μM concentration of inhibitors. […] GraphPad Prism software was used to calculate the IC50 values. The result is given as the average value of three independent measurements. […] Determination of inhibitory activities on E. coli and S. aureus Topoisomerase IV IC50 values were determined in an assay from Inspiralis on streptavidin-coated 96-well microtiter plates from Thermo scientific Pierce. […] After washing off the unbound oligonucleotide, the enzyme test was performed. The reaction volume of 30 μL in buffer (40 mM HEPES KOH with pH 7.6, 100 mM potassium glutamate, 10 mM magnesium acetate, 10 mM DTT, 1 mM ATP, 0.05 mg/mL albumin) contained 1.5 U of topoisomerase IV from E. coli or S. aureus, 0.75 μg of pNO1 supercoiled plasmid, and 3 μL solution of the inhibitor in DMSO (10%) and Tween 20 (0.008%). […] After additional incubation for 30 min at rt, during which triplex (biotin-oligonucleotide-plasmid) was formed, the unbound plasmid was washed off using TF buffer and SybrGOLD in T10 buffer (10 mM Tris HCl with pH 8.0 and 1 mM EDTA) was added. […] Initial screening was done at 100 or 10 μM concentration of inhibitors. […] GraphPad Prism software was used to calculate the IC50 values. The result is given as the average value of three independent measurements.

B. subtilis = experiment: MIC, two-fold serial dilution, B. subtilis; format: cell-based; details: Bacillus subtilis; read-out: Minimum Inhibitory Concentration (MIC), B. subtilis
Description: (§3) Table 2, using the reference drug ciprofloxacin, was presented with the MICs (minimal inhibitory concentrations) of these compounds against tested bacteria. […] The nature of aromatic substitution in the oxadiazole moiety tends to be correlated with higher antibacterial effects and the activity increased with (Ar) in the order of 2-pyridyl ≥ 3-pyridyl > 4-pyridyl > 2-Cl-Ph > 2-naphthyl.
(§4) On 96-well microtiter plates and […] of fresh bacterial culture of a single McFarland unit overnight, a double serial dilution of each compound […] in sterile standard saline was prepared for every single source well. Ciprofloxacin antibiotic (5 mg/mL^−1) and normal saline were included as standard references in each assay (see Appendix A).
(§5) In 96-well microtiter plates and […] of fresh bacterial culture of a single McFarland unit overnight, a double serial dilution of each compound […] in sterile standard saline was prepared for every single source well. Ciprofloxacin antibiotic (5 mg/mL^−1) and normal saline were included as standard reference in each assay. The plates were incubated at 37 °C overnight. As an indicator of bacterial growth, […] of p-iodonitrotetrazolium violet (INT) was added to each well and incubated at 37 °C for 30 min. […] The colorless tetrazolidium salt acts as an electron accepter and is reduced to a red colored formazan product by biological activity organisms. Where bacterial growth was inhibited, the solution in the well remained clear after incubation with INT.

[1] = Cell viability assay (MTT); format: cell-based; design: dose or concentration left out as unconfirmed; details: human, MCF-10A mammary gland epithelial cells, four days
Description: A human mammary gland epithelial cell line (MCF-10A) was used to conduct a cell viability assay. Compounds 2–6 were incubated with MCF-10A cells for four days, and the viability of the cells was determined using the 3-(4,5-dimethylthiazol-2-yl)-2,5-diphenyltetrazolium bromide (MTT) assay. All compounds had no cytotoxic effects, and the viability of the cells was greater than 85% for most of the compounds examined […], as shown in Table 4.
MTT Assay was performed to investigate the effect of compounds 2–6 on the viability of mammary epithelial cells (MCF-10A) (see Appendix A).

[2] = system: Candida albicans (ATCC 7102); experiment: Kirby-Bauer disc diffusion, C. albicans; format: cell-based; details: % of fluconazole
Description: Furthermore, using fluconazole as a reference drug, 1–21 were tested in vitro for antifungal activity against A. flavus and C. albicans (Table 1).
(§6) The cultures used were collected from the Cairo University’s Microanalytical Centre, Faculty of Science. An updated Kirby-Bauer disc diffusion method was applied for antimicrobial activities of the tests 1–21 compounds [32, 33, 34, 35]. See Appendix A.
The cultures used were collected from the Cairo University’s Microanalytical Centre, Faculty of Science. An updated Kirby-Bauer disc diffusion method was applied for the antimicrobial activities of the tests for compounds 1–21 [28]. […] Plates inoculated with filamentous fungi as Aspergillus flavus were incubated at 25 °C for 48 h; Gram positive bacteria as Staphylococcus aureus (ATCC 12600, Microanalytical center, Cairo, Egypt), Bacillus subtilis (ATCC 6051); Gram negative bacteria as Escherichia coli (ATCC 11775), Pseudomonas aeuroginosa (ATCC 10145) were incubated at 35–37 °C for 24–48 h and yeast as Candida albicans (ATCC 7102) was incubated at 30 °C for 24–48 h and, then the diameters of the inhibition zones were measured in millimeters. […] For the disc diffusion, the zone diameters were measured with slipping calipers of the National Committee for Clinical Laboratory Standards, and the results are given in Table 1. […]

E. coli = experiment: MIC, two-fold serial dilution, E. coli; format: cell-based; details: Escherichia coli; read-out: Minimum Inhibitory Concentration (MIC), E. coli
Description: as §3, §4, §5

P. aeruginosa = experiment: MIC, two-fold serial dilution, P. aeruginosa; format: cell-based; details: Pseudomonas aeruginosa; read-out: Minimum Inhibitory Concentration (MIC), P. aeruginosa
Description: as §3, §4, §5

S. aureus = experiment: MIC, two-fold serial dilution, S. aureus; format: cell-based, Staphylococcus aureus; details: Staphylococcus aureus; read-out: Minimum Inhibitory Concentration (MIC), S. aureus
Description: as §3, §4, §5

E. coli DNA gyrase = target: T2, E. coli DNA gyrase (Escherichia coli, UniProt P0AES4+P0AES6); experiment: E. coli DNA gyrase assay; format: biochemical
T2 construct: purchased Inspiralis
T2 sequence (P0AES4 whole entry, one chain of several): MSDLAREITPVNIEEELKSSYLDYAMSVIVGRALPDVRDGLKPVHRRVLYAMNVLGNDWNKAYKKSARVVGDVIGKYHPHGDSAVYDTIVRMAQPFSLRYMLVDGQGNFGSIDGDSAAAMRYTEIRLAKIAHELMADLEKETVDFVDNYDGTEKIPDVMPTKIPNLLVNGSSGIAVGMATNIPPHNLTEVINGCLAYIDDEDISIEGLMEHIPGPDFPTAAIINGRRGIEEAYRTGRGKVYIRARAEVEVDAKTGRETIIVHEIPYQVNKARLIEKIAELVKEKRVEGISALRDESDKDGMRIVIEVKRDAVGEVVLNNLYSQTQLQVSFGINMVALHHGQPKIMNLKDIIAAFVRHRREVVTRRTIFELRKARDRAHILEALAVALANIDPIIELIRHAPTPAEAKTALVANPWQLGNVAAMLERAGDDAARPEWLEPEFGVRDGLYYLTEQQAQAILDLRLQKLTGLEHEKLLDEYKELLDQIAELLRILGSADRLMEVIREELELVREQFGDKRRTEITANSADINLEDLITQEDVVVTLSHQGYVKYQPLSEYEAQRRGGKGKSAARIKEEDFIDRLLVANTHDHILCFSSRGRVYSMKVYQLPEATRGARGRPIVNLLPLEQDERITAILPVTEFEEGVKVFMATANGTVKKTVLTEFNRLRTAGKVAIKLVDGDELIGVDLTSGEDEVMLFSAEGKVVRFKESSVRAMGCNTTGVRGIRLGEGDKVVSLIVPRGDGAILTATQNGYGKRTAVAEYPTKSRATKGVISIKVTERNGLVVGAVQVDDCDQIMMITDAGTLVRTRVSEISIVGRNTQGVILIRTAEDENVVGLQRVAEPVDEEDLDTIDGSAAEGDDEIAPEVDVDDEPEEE
Description: as §1, §2

[3] = system: Staphylococcus aureus (ATCC 12600); experiment: Kirby-Bauer disc diffusion, S. aureus; format: cell-based; details: % of ciprofloxacin
Description: (§7) An updated Kirby-Bauer disc diffusion method was used to assess the antimicrobial activity of the tested samples [32, 33, 34, 35]. Using ciprofloxacin as a reference drug, synthetic compounds 1–21 were tested in vitro for antibacterial activity against S. aureus and B. subtilis as Gram-positive strains and E. coli and P. aeruginosa as Gram-negative strains. […]. […].
as §6
The cultures used were collected from the Cairo University’s Microanalytical Centre, Faculty of Science. An updated Kirby-Bauer disc diffusion method was applied for the antimicrobial activities of the tests for compounds 1–21 [28]. Shortly after, 10 mL of fresh medium was grown to 100 μL bacteria/food until a count of 10^8 cells/mL or 10^5 cells/mL was achieved. One hundred μL microbial suspension was spread over agar plates that suited the broth in which it was held. The selected colonies of each organism that may play a pathogenic function should be from the primary agar plates and tested by the disc diffusion method for susceptibility. Plates inoculated with filamentous fungi as Aspergillus flavus were incubated at 25 °C for 48 h; Gram positive bacteria as Staphylococcus aureus (ATCC 12600, Microanalytical center, Cairo, Egypt), Bacillus subtilis (ATCC 6051); Gram negative bacteria as Escherichia coli (ATCC 11775), Pseudomonas aeuroginosa (ATCC 10145) were incubated at 35–37 °C for 24–48 h and yeast as Candida albicans (ATCC 7102) was incubated at 30 °C for 24–48 h and, then the diameters of the inhibition zones were measured in millimeters. Standard discs of ciprofloxacin (antibacterial agent), fluconazole (antifungal agent) served as positive controls for antimicrobial activity, but filter discs impregnated with 10 µL of solvent (distilled water, chloroform, DMSO) were used as a negative control. Blank paper disks (Schleicher and Schuell, Cytiva, Spain) with a diameter of 8.0 mm were impregnated with 10 µL of tested concentration of the stock solutions. When a filter paper disc impregnated with a tested chemical is placed on agar, the chemical will diffuse from the disc into the agar. This diffusion will place the chemical in the agar only around the disc. The solubility of the chemical and its molecular size will determine the size of the area of chemical infiltration around the disc. […] For the disc diffusion, the zone diameters were measured with slipping calipers of the National Committee for Clinical Laboratory Standards, and the results are given in Table 1. […]

[4] = system: Escherichia coli (ATCC 11775); experiment: Kirby-Bauer disc diffusion, E. coli; format: cell-based; details: % of ciprofloxacin
Description: as §7, §6
The cultures used were collected from the Cairo University’s Microanalytical Centre, Faculty of Science. An updated Kirby-Bauer disc diffusion method was applied for the antimicrobial activities of the tests for compounds 1–21 [28]. Shortly after, 10 mL of fresh medium was grown to 100 μL bacteria/food until a count of 10^8 cells/mL or 10^5 cells/mL was achieved. One hundred μL microbial suspension was spread over agar plates that suited the broth in which it was held. The selected colonies of each organism that may play a pathogenic function should be from the primary agar plates and tested by the disc diffusion method for susceptibility. Plates inoculated with filamentous fungi as Aspergillus flavus were incubated at 25 °C for 48 h; Gram positive bacteria as Staphylococcus aureus (ATCC 12600, Microanalytical center, Cairo, Egypt), Bacillus subtilis (ATCC 6051); Gram negative bacteria as Escherichia coli (ATCC 11775), Pseudomonas aeuroginosa (ATCC 10145) were incubated at 35–37 °C for 24–48 h and yeast as Candida albicans (ATCC 7102) was incubated at 30 °C for 24–48 h and, then the diameters of the inhibition zones were measured in millimeters. […] For the disc diffusion, the zone diameters were measured with slipping calipers of the National Committee for Clinical Laboratory Standards, and the results are given in Table 1. […]

T1 sequence (P0AFI2 whole entry): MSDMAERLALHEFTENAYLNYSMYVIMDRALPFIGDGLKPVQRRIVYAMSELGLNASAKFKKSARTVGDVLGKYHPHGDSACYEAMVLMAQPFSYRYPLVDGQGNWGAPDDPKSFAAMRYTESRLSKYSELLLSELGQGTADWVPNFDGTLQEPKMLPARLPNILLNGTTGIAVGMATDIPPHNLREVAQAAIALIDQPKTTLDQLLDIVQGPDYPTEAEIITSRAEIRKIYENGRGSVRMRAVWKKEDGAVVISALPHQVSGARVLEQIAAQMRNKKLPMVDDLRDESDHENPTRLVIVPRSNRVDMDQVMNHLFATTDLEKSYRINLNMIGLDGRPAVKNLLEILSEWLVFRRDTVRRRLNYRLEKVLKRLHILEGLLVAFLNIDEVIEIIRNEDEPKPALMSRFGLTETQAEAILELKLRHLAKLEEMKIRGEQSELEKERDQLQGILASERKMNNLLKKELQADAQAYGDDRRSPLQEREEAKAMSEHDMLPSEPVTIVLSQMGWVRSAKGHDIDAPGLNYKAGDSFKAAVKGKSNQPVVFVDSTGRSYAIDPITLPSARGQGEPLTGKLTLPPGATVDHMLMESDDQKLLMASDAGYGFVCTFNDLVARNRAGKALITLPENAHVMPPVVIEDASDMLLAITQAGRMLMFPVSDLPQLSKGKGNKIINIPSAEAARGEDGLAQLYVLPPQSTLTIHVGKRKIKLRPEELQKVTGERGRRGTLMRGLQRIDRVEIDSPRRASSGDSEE
T1 sequence (P20083 whole entry): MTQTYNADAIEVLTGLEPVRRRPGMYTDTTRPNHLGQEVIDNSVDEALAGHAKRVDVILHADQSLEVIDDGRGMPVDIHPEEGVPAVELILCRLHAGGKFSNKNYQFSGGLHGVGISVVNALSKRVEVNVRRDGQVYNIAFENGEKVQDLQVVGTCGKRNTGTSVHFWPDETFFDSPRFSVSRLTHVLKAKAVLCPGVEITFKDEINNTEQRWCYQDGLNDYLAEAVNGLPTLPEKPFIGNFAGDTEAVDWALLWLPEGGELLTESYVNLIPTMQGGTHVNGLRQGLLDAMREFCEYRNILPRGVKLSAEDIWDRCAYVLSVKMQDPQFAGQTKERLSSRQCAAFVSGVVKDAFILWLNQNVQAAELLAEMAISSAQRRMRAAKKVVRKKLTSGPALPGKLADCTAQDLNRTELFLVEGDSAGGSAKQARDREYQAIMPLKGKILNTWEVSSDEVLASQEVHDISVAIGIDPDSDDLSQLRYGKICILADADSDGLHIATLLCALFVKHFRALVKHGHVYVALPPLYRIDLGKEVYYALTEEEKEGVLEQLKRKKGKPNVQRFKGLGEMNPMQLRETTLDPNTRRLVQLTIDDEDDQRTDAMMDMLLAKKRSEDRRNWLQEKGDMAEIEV

Compound	remaining activity at 1 µM (E. coli topoisomerase IV; read-out: RA (%), residual activity of E. coli Topo IV)	MIC (B. subtilis)	melting point	viability at 4 days [1]	antifungal activity against C. albicans relative to fluconazole [2]	MIC (E. coli)	MIC (P. aeruginosa)	MIC (S. aureus)	IC50 (E. coli DNA gyrase)	antibacterial activity relative to ciprofloxacin, S. aureus [3]	antibacterial activity relative to ciprofloxacin, E. coli [4]	IC50 (E. coli topoisomerase IV)
O=C(O)c1cn(C2CC2)c2cc(N3CCN(Cn4nc(-c5ccc6ccccc6c5)oc4=S)CC3)c(F)cc2c1=O [Compound 3, 1-Cyclopropyl-6-fluoro-7-[4-(5-naphthalen-2-yl-2-thioxo-[1,3,4]oxadiazol-3-ylmethyl)-piperazin-1-yl]-4-oxo-1,4-dihydro-quinoline-3-carboxylic acid]	58%	0.125 µg/mL (≈ 0.219 µM)	244 °C	85%	33%	0.125 µg/mL (≈ 0.219 µM)	0.05 µg/mL (≈ 0.0875 µM)	0.125 µg/mL (≈ 0.219 µM)	0.086 ± 0.009 µM			
O=C(O)c1cn(C2CC2)c2cc(N3CCN(Cn4nc(-c5ccccn5)oc4=S)CC3)c(F)cc2c1=O [Compound 4, 1-Cyclopropyl-6-fluoro-4-oxo-7-[4-(5-pyridin-2-yl-2-thioxo-[1,3,4]oxadiazol-3-yl-methyl)-piperazin-1-yl]-1,4-dihydro-quinoline-3-carboxylic acid]		0.125 µg/mL (≈ 0.239 µM)	218 °C	89%		0.062 µg/mL (≈ 0.119 µM)	0.062 µg/mL (≈ 0.119 µM)	0.035 µg/mL (≈ 0.067 µM)	0.042 ± 0.007 µM	equipotent	equipotent	1.47 ± 0.2 µM
O=C(O)c1cn(C2CC2)c2cc(N3CCN(Cn4nc(-c5cccnc5)oc4=S)CC3)c(F)cc2c1=O [Compound 5, 1-Cyclopropyl-6-fluoro-4-oxo-7-[4-(5-pyridin-3-yl-2-thioxo-[1,3,4]oxadiazol-3-yl-methyl)-piperazin-1-yl]-1,4-dihydro-quinoline-3-carboxylic acid]		0.125 µg/mL (≈ 0.239 µM)	230 °C	91%		0.062 µg/mL (≈ 0.119 µM)	0.125 µg/mL (≈ 0.239 µM)	0.035 µg/mL (≈ 0.067 µM)	0.092 ± 0.009 µM	equipotent	equipotent	6.8 ± 0.2 µM
